Measured values reported in ChEMBL document CHEMBL2074306, “Transport of bile acids in multidrug-resistance-protein 3-overexpressing cells co-transfected with the ileal Na+-dependent bile-acid transporter” (Biochem J, 2003).

How the values were obtained:
Format in all cases: functional, cell membranes
Parameters in all cases: scale not given: the % may be the effect or the level left
[1] = target: Multidrug resistance associated protein (Homo sapiens) (UniProt Q96QA9); experiment: TP_TRANSPORTER: inhibition of Etoposide glucuronide uptake (Etoposide glucuronide: 0.094 uM, TDCA: 500.0 uM) in membrane vesicles from MRP3-expressing Sf9 cells; details: Membrane vesicle
[2] = target: Multidrug resistance associated protein (Homo sapiens) (UniProt Q96QA9); experiment: TP_TRANSPORTER: inhibition of Etoposide glucuronide uptake (Etoposide glucuronide: 0.094 uM, TDCA: 500 uM) by Taurodeoxycholate at a concentration of 500uM in membrane vesicle from MRP3-expressing Sf9 cells
[3] = target: Multidrug resistance associated protein (Homo sapiens) (UniProt Q96QA9); experiment: TP_TRANSPORTER: inhibition of Etoposide glucuronide uptake (Etoposide glucuronide: 0.094 uM, […] uM) by Glycolithocholate-3-sulfate at a concentration of 20uM in membrane vesicle from MRP3-expressing Sf9 cells
[4] = target: Multidrug resistance associated protein (Homo sapiens) (UniProt Q96QA9); experiment: TP_TRANSPORTER: inhibition of Etoposide glucuronide uptake (Etoposide glucuronide: 0.094 uM, GLC-S: 20.0 uM) in membrane vesicles from MRP3-expressing Sf9 cells; details: Membrane vesicle
[5] = target: Multidrug resistance associated protein (Homo sapiens) (UniProt Q96QA9); experiment: TP_TRANSPORTER: inhibition of Etoposide glucuronide uptake (Etoposide glucuronide: 0.094 uM, MK571: 20 uM) by MK-571 at a concentration of 20uM in membrane vesicle from MRP3-expressing Sf9 cells
[6] = target: Multidrug resistance associated protein (Homo sapiens) (UniProt Q96QA9); experiment: TP_TRANSPORTER: inhibition of Etoposide glucuronide uptake (Etoposide glucuronide: 0.094 uM, MK-571: 20.0 uM) in membrane vesicles from MRP3-expressing Sf9 cells; details: Membrane vesicle
[7] = target: Multidrug resistance associated protein (Homo sapiens) (UniProt Q96QA9); experiment: TP_TRANSPORTER: inhibition of Etoposide glucuronide uptake (Etoposide glucuronide: 0.094 uM, GC: 500.0 uM) in membrane vesicles from MRP3-expressing Sf9 cells; details: Membrane vesicle
[8] = target: Multidrug resistance associated protein (Homo sapiens) (UniProt Q96QA9); experiment: TP_TRANSPORTER: inhibition of Etoposide glucuronide uptake (Etoposide glucuronide: 0.094 uM, GC: 500 uM) by Glycocholate at a concentration of 500uM in membrane vesicle from MRP3-expressing Sf9 cells
[9] = target: Multidrug resistance associated protein (Homo sapiens) (UniProt Q96QA9); experiment: TP_TRANSPORTER: inhibition of Etoposide glucuronide uptake (Etoposide glucuronide: 0.094 uM, Lithocholic acid-sulfate: 20 uM) by Lithocholate-3-sulfate at a concentration of 20uM in membrane vesicle from MRP3-expressing Sf9 cells
[10] = target: Multidrug resistance associated protein (Homo sapiens) (UniProt Q96QA9); experiment: TP_TRANSPORTER: inhibition of Etoposide glucuronide uptake (Etoposide glucuronide: 0.094 uM, LC-S: 20.0 uM) in membrane vesicles from MRP3-expressing Sf9 cells; details: Membrane vesicle
[11] = target: Multidrug resistance associated protein (Homo sapiens) (UniProt Q96QA9); experiment: TP_TRANSPORTER: inhibition of Etoposide glucuronide uptake (Etoposide glucuronide: 0.094 uM, TLCAS: 50 uM) by Taurolithocholate-3-sulfate at a concentration of 50uM in membrane vesicle from MRP3-expressing Sf9 cells
[12] = target: Multidrug resistance associated protein (Homo sapiens) (UniProt Q96QA9); experiment: TP_TRANSPORTER: inhibition of Etoposide glucuronide uptake (Etoposide glucuronide: 0.094 uM, TLC-S: 50.0 uM) in membrane vesicles from MRP3-expressing Sf9 cells; details: Membrane vesicle
[13] = target: Multidrug resistance associated protein (Homo sapiens) (UniProt Q96QA9); experiment: TP_TRANSPORTER: inhibition of Etoposide glucuronide uptake (Etoposide glucuronide: 0.094 uM, TCDC: 500.0 uM) in membrane vesicles from MRP3-expressing Sf9 cells; details: Membrane vesicle
[14] = target: Multidrug resistance associated protein (Homo sapiens) (UniProt Q96QA9); experiment: TP_TRANSPORTER: inhibition of Etoposide glucuronide uptake (Etoposide glucuronide: 0.094 uM, TCDC: 500 uM) by Taurochenodeoxycholate at a concentration of 500uM in membrane vesicle from MRP3-expressing Sf9 cells

Multidrug resistance associated protein (Homo sapiens), sequence (Q96QA9 as listed by the source): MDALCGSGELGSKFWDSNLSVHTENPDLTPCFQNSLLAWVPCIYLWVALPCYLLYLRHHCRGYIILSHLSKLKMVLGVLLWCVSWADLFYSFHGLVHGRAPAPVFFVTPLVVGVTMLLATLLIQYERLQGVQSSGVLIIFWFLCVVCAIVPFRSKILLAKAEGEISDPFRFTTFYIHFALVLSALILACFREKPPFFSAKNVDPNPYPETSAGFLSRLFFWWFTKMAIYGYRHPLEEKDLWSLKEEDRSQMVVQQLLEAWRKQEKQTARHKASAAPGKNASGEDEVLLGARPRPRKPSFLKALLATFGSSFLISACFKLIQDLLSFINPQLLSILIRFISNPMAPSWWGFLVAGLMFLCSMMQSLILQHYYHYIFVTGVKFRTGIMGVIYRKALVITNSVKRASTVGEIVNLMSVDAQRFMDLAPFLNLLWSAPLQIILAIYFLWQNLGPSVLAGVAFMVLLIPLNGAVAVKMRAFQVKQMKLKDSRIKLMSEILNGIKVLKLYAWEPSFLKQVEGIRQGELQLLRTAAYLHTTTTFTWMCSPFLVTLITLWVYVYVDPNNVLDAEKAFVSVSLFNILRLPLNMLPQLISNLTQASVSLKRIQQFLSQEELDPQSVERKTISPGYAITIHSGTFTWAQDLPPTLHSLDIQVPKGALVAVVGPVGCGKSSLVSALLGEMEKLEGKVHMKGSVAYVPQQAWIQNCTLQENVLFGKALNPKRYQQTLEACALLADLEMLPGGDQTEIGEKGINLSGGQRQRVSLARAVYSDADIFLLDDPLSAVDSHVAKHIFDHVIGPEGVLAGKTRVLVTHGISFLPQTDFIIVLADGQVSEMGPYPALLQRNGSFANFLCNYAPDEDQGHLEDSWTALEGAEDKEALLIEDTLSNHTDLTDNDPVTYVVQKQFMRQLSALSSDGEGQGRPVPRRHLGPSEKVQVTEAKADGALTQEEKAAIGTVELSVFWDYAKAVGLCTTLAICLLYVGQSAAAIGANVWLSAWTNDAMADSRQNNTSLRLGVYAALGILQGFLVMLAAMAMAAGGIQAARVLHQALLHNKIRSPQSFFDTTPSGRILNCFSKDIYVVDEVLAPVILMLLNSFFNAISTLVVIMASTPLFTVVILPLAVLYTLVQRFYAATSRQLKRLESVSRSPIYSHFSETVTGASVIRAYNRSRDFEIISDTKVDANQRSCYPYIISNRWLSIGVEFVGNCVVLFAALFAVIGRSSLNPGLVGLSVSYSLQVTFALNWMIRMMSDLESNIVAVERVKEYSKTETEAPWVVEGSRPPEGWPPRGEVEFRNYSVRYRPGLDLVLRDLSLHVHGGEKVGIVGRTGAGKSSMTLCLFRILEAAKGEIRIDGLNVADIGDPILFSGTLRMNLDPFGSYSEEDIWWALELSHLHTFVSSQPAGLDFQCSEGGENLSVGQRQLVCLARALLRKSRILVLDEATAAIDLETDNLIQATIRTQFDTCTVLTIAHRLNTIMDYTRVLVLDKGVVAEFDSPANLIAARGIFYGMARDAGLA

C[C@H](CCC(=O)NCCS(=O)(=O)O)[C@H]1CC[C@H]2[C@@H]3CC[C@@H]4C[C@H](O)CC[C@]4(C)[C@H]3C[C@H](O)[C@]12C
Activity [1]: 9%
Activity [2]: 9%

C[C@H](CCC(=O)NCC(=O)O)[C@H]1CC[C@H]2[C@@H]3CC[C@@H]4C[C@H](OS(=O)(=O)O)CC[C@]4(C)[C@H]3CC[C@]12C
Activity [3]: 29%
Activity [4]: 29%

CN(C)C(=O)CCSC(SCCC(=O)O)c1cccc(/C=C/c2ccc3ccc(Cl)cc3n2)c1 (centres undefined)
Activity [5]: 40%
Activity [6]: 40%

C[C@H](CCC(=O)NCC(=O)O)[C@H]1CC[C@H]2[C@@H]3[C@H](O)C[C@@H]4C[C@H](O)CC[C@]4(C)[C@H]3C[C@H](O)[C@]12C
Activity [7]: 30%
Activity [8]: 30%

C[C@H](CCC(=O)O)[C@H]1CC[C@H]2[C@@H]3CC[C@@H]4C[C@H](OS(=O)(=O)O)CC[C@]4(C)[C@H]3CC[C@]12C
Activity [9]: 24%
Activity [10]: 24%

C[C@H](CCC(=O)NCCS(=O)(=O)O)C1CC[C@H]2[C@@H]3CC[C@@H]4C[C@H](OS(=O)(=O)O)CC[C@]4(C)[C@H]3CC[C@]12C (some centres undefined)
Activity [11]: 8%
Activity [12]: 8%

C[C@H](CCC(=O)NCCS(=O)(=O)O)[C@H]1CC[C@H]2[C@@H]3[C@H](O)C[C@@H]4C[C@H](O)CC[C@]4(C)[C@H]3CC[C@]12C
Activity [13]: 6%
Activity [14]: 6%
